Reference: PubChem BioAssay AID463229 (Broad Institute, 2010)

tested on: INS-1E rat beta cells, no cytokines, CellTiter-Glo ATP, 48 h; experiment: ATP level change in INS-1E without cytokines, dose response, counter-screen for beta-cell apoptosis protection project, INS-1E rat cells, ATP luminescence, cherry pick (AID 463229)

In order of falling AC50:
1. Cc1ccc(O)c(NC(=S)NC(=O)c2ccc(-c3ccc(Cl)cc3)o2)c1  23.9 µM
2. COc1cccc(/C=N/Nc2ccnc(=O)[nH]2)c1O  22.7 µM
3. CN(C)CCCNc1c2ccccc2nc2ccccc12  16.2 µM
4. Cc1ccc(NC(=O)Cn2c(=O)oc3cc(S(=O)(=O)N4CCC(C)CC4)ccc32)cc1C  16 µM
5. CC(C)(C)C1CCC2(CC1)C(C#N)=C(SCC(=O)NC1CCCCC1)NC(=O)C2C#N (configuration not stated)  15.9 µM
6. O=C(Oc1c(Cl)cc(Cl)c2cccnc12)c1cccs1  15 µM
7. Cc1ccc(S(=O)(=O)Nc2ccc(O)c3ccccc23)c(C)c1  13.7 µM
8. COc1cc(C(=O)Oc2ccccc2/C=N/NC(=O)c2ccc(C)c(Cl)c2)cc(OC)c1OC  12.6 µM
9. Cc1cc(N/N=C/c2ccccc2[N+](=O)[O-])nc(-n2nc(C)cc2C)n1  12.2 µM
10. CC(C)(C)C(=O)Nc1ccc(C(=O)N/N=C/c2ccccc2OC(=O)c2ccc(Cl)cc2)cc1  11.8 µM
11. O=C1N/C(=N\N=C\c2cccnc2)SC1Cc1ccc(SC(F)F)cc1 (configuration not stated)  9.68 µM
12. Cc1ccc(-c2nc(N/N=C/c3cccnc3)c3ccccc3n2)cc1  9.02 µM
13. O=C(N/N=C/c1cc(Cl)ccc1O)c1cccnc1  8.72 µM
14. N#Cc1c(Cl)nsc1NC(=O)c1ccccc1  8.12 µM
15. CN(c1ccccc1)c1ccc(/C=C/[N+](=O)[O-])cc1  8.01 µM
16. O=C(Nc1ccc(OC(F)F)cc1)Nc1cccc(C(F)(F)F)c1  7.65 µM
17. Cc1cccc(/C=N/NC(=O)c2c(-c3ccccc3)noc2C)c1O  7.61 µM
18. Cc1ccc(NC(=O)c2cc(S(=O)(=O)NCCC3=CCCCC3)ccc2F)cc1  7.48 µM
19. COc1ccc(C(NC(C)=O)c2cc(Cl)c3cccnc3c2O)cc1 (configuration not stated)  7.34 µM
20. O=[N+]([O-])c1cc(C(F)(F)F)ccc1NCCCCNS(=O)(=O)c1ccc(Cl)cc1  6.94 µM
21. Cc1csc2ncnc(NCCc3ccccn3)c12  6.88 µM
22. [O-]c1ccccc1-[n+]1c(-c2ccccc2)cc(-c2ccccc2)cc1-c1ccccc1  6.87 µM
23. CCNC(=O)Nc1cc(S(=O)(=O)Nc2ccc(OC)cc2)ccc1N1CCOCC1  6.84 µM
24. CCCCCc1nc2c(c(=O)c3ccccc3n2C)c(=O)n1C1CCCCCC1  6.84 µM
25. O=C(Nc1ccc2nc3n(c(=O)c2c1)CCCCC3)c1c(F)ccc([N+](=O)[O-])c1F  6.65 µM
26. CCC(C)Sc1ccc(-c2nc3ccc(C)cn3c2NCc2ccccc2)cc1OC (configuration not stated)  6.46 µM
27. O=[N+]([O-])c1cnc(Sc2ccncn2)s1  5.75 µM
28. Cc1occc1C(=O)N/N=C/c1ccc2c(c1)OCO2  5.48 µM
29. Cc1nnc(N/N=C/c2ccccn2)[nH]c1=O  5.46 µM
30. CC1CC(=O)c2c(cc3c(-c4c(O)cc(O)c5c(O)c6c(cc45)OC(C)CC6=O)c(O)cc(O)c3c2O)O1 (configuration not stated)  5.1 µM
31. Cc1ccc(S(=O)(=O)NCc2ccncc2)cc1C  4.92 µM
32. C=C[C@H](Cc1ccccc1)N(Cc1ccccc1)S(=O)(=O)N(Cc1ccccc1)[C@H](C=C)Cc1ccccc1  4.79 µM
33. COc1ccc(C(NC(C)=O)c2ccc3cccnc3c2O)c(OC)c1 (configuration not stated)  4.24 µM
34. COc1ccc(C)cc1Nc1n[n+](-c2ccccc2)c(-c2c(Cl)cccc2Cl)s1  4.15 µM
35. CC1=C(C)/C(=N\OS(=O)(=O)c2ccccc2)C=CC1=O  4.13 µM
36. COc1cc(/C=C/C(=O)c2ccc([N+](=O)[O-])o2)ccc1O  3.91 µM
37. O=C(Nc1cc(S(=O)(=O)N2CCCCC2)ccc1Cl)c1ccccc1NS(=O)(=O)c1ccc(F)cc1  3.66 µM
38. Cc1ccc(-c2nc(NC(=O)c3nn(C)cc3[N+](=O)[O-])sc2C)cc1C  3.43 µM
39. Cc1ccc2c(c1)S/C(=C/c1ccc[n+](C)c1)N2CCO  3.24 µM
40. COC(=O)C1CCN(C(=O)c2cc(-c3ccc(Cl)s3)nc3ccccc23)CC1  3.24 µM
41. COc1ccc(-c2nc(-c3ccccn3)no2)cc1  3.11 µM
42. O=C(NNc1c(Cl)cc(Cl)cc1Cl)c1cccc([N+](=O)[O-])c1  3.08 µM
43. FC(F)Sc1ccc(N=C2NN=C(c3ccc4c(c3)OCCO4)CS2)cc1  2.9 µM
44. CC(=O)c1c(C)[nH]c(C(=O)OCC(=O)Nc2ccc(Cl)cc2[N+](=O)[O-])c1C  2.82 µM
45. CCOC(=O)c1ccc(-[n+]2c(-c3ccccc3)cc(-c3ccccc3)cc2-c2ccccc2)cc1  2.27 µM
46. O=C(c1ccccc1)c1c2c(cc3sc4ccccc4[n+]13)-c1cccc3cccc-2c13  2.26 µM
47. COc1ccccc1NC1=C(N2CCCCC2)C(=O)c2ccccc2C1=O  2.21 µM
48. CCCC(=O)NC(c1ccccc1Cl)c1ccc2cccnc2c1O (configuration not stated)  2.13 µM
49. Cc1ccccc1NC1=C/C(=N\S(=O)(=O)c2cccs2)c2ccccc2C1=O  1.79 µM
50. CCN(CC)c1ccc(/C=N/NC(=O)c2c(Cl)cnn2C)c(O)c1  1.5 µM
51. Cc1nn(-c2nc3ccccc3[nH]2)c(=O)c2ccccc12  1.31 µM
52. COc1ccc(CCNc2ncnc3sccc23)cc1OC  1.13 µM
